Experimental data taken from patent US20260166039A1 (SCHRÖDINGER, INC., priority 2022, published 2026).
pIC50: −log10 of the molar value. Like-named read-outs stand apart in the source and are kept apart here.

Tests used:
Wee1 kinase domain = molecular target: T1, Wee1 kinase domain (Homo sapiens, UniProt P30291); test: Wee1 Kinase Biochemical Assay (ADP-Glo); conditions: 1 nM Wee1 enzyme, 15 uM ATP
T1 construct: Wee1 kinase domain was purchased from Carna (catalog #05-177); purchased Carna 05-177
Procedure, shortened: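 ADP-Glo detection of ADP produced after 4 h at 25° C by 1 nM Wee1 kinase domain on 2 ng/mL poly(Lys,Tyr 4:1) with 15 uM ATP. Buffer: 40 mM Tris-HCl, 20 mM MgCl2, 0.1 mg/mL BSA, 2 mM DTT. Inhibition is relative to DMSO (high) and saturating Wee1 inhibitor (low) controls.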

[1] = tested on: phosphorylation of Cdc2 Y15 (Wee1 substrate) in A427 cells; test: Phosphorylated Cdc2 MSD Electrochemiluminescence Assay; format: cell-based; conditions: Homo sapiens
Procedure, shortened: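 Read-out: percent residual phospho-Cdc2 Y15 relative to DMSO and positive-control Wee1 inhibitor, measured by MSD electrochemiluminescence capture/detection antibody assay in cell lysates. A427 cells received duplicate 3-fold compound dilution series 20 h post-seeding, with 6 h total incubation at 37 °C.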

T1 sequence (P30291 299-569 limits assumed): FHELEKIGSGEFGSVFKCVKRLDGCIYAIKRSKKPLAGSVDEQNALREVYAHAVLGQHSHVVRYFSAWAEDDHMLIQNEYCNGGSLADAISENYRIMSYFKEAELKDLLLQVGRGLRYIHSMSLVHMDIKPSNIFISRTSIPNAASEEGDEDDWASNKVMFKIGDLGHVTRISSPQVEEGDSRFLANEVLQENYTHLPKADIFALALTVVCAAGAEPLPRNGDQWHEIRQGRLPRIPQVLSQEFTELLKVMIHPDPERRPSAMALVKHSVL

| pIC50 (Wee1 kinase domain; class symbols, 4 hours at 25° C.) | pIC50 ([1]; A-427, class symbols, read-out: A427 pCDC2 MSD IC50) | pIC50 (Wee1 kinase domain; 4 hours at 25° C) | pIC50 ([1]; A-427, read-out: A427 pCDC2 MSD IC50) | Structure (SMILES) |
| --- | --- | --- | --- | --- |
| > 8.00 | > 7.00 |  |  | CC1(C)C[C@H]2N(c3cccc(P(C)(C)=O)n3)c3nc(Nc4ccn([C@@H]5CCOC5)c(=O)c4)ncc3[C@@]2(C)CO1 [Example 783, 4-(((4bR,8aR)-9-(6-(dimethylphosphoryl)pyridin-2-yl)-4b,7,7-trimethyl-4b,5,7,8,8a,9-hexahydropyrano[3′,4′:4,5]pyrrolo[2,3-d]pyrimidin-2-yl)amino)-1-((R)-tetrahydrofuran-3-yl)pyridin-2(1H)-one] |
|  |  | > 8.00 | 6.00 to 7.00 | CC[C@@]1(O)CCc2ccc(N3c4nc(Nc5ccn(C6CCN(C)CC6)c(=O)c5)ncc4[C@@]4(C)COC(C)(C)C[C@@H]34)nc21 [Example 812, 4-(((4bR,8aR)-9-((R)-7-ethyl-7-hydroxy-6,7-dihydro-5H-cyclopenta[b]pyridin-2-yl)-4b,7,7-trimethyl-4b,5,7,8,8a,9-hexahydropyrano[3′,4′:4,5]pyrrolo[2,3-d]pyrimidin-2-yl)amino)-1-(1-methylpiperidin-4-yl)pyridin-2(1H)-one] |
